Reference: US6362237B1, “Compounds with progesterone-antagonistic and antiestrogenic action to be used together for female contraception” (Schering Aktiengesellschaft, priority 1994, dated 2002)

What was measured:
[1] = tested on: normal guinea pigs with a normal cycle; assay: Test 3: receptivity inhibition in guinea pigs treated over 2 cycles, mating in the second cycle; type: in vivo, guinea pig; settings: for effectiveness of the single dose given separately: 0.5 mg daily s.c.; for effectiveness of the single dose given separately / effect of lower doses by themselves: alone; for effect of lower doses by themselves: <1.0 mg daily s.c.
Procedure: The tests were carried out on normal guinea pigs with a normal cycle over a treatment period of 2 cycles. Mating took place in the second cycle.
Doses of Onapristone: 0.1, 0.25, 0.5, 1.0 and 3.0 mg daily s.c.

guinea pigs = assay: Inhibition of implantation in guinea pigs by estrogen antagonists; type: in vivo, guinea pig

Compound	effectiveness of the single dose given separately [1]	effect of lower doses by themselves [1]	pregnancies after treatment ([1]; onapristone alone, high doses, daily s.c.)	normal pregnancies ([1]; tamoxifen alone, 10.0 mg daily s.c., 2 cycles) [%]	inhibition of receptivity ([1]; tamoxifen alone, dosage range 0.1-10.0 mg/animal daily s.c.)	implantation in guinea pigs (guinea pigs)
CN(C)c1ccc([C@H]2C[C@]3(C)[C@@H](CC[C@]3(O)CCCO)[C@@H]3CCC4=CC(=O)CCC4=C32)cc1 [onapristone, 11β-[4-(dimethylamino)phenyl]-17α-hydroxy-17β-(3-hydroxypropyl)-13α-estra-4,9-dien-3one]	only marginally effective	no effect or a marginal effect	occasional pregnancies occurred			
CC/C(=C(\c1ccccc1)c1ccc(OCCN(C)C)cc1)c1ccccc1 [tamoxifen, (Z)-N,N-dimethyl-2-[4-(1,2-diphenyl-1-butenyl)phenoxy]ethanamine]	only marginally effective	no effect or a marginal effect		30	no complete inhibition of receptivity could be achieved	inhibit implantation
C[C@]12CC[C@@H]3c4ccc(O)cc4C[C@@H](CCCCCCCCC[S+]([O-])CCCC(F)(F)C(F)(F)F)[C@H]3[C@@H]1CC[C@@H]2O (stereo partly drawn) [ICI 182780, 7α-[9-[(4,4,5,5,5-pentafluorpentyl)sulfinyl]nonyl]estra-1,3,5(10)-trien-3,17β-diol]						inhibit implantation
